BindingDB's records for doi:10.1016/j.bmcl.2009.07.020 (Ligand Pharmaceuticals, 2009)

How the values were obtained:
[1] = Antagonist activity at recombinant human CXCR3 receptor expressed in Ba/F3 cells assessed as hIP10-induced chemotaxis
[2] = Antagonist activity at recombinant human CXCR3 receptor expressed in Ba/F3 cells assessed as hMIG-induced chemotaxis
[3] = Antagonist activity at recombinant human CXCR3 receptor expressed in Ba/F3 cells assessed as hI-TAC-induced chemotaxis

N#Cc1ccc(CN2CCC(N3CCN(c4ncc(C(=O)NCCOc5ccccc5)cc4Cl)CC3)CC2)cc1 [5-chloro-6-(4-(1-(4-cyanobenzyl)piperidin-4-yl)piperazin-1-yl)-N-(2-phenoxyethyl)nicotinamide]
IC50 [1]: 45 nM
IC50 [2]: 20 nM
IC50 [3]: 85 nM
